The assay deals with Acinetobacter baumannii ATCC17978. The assay can be described thus: Antimicrobial susceptibility testing: 90% growth inhibitory concentration (IC90) determination, Iso-Sensitest broth. The class given is cell-based. An outline of the steps: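 A. baumannii ATCC17978 grown in Iso-Sensitest broth across 10 compound concentrations at 35±2 °C.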
Setting [1] is: 90% growth inhibitory concentration, Acinetobacter baumannii ATCC17978, Iso-Sensitest broth, OD 600 nm over 16 h, read-out: ATCC17978 IC90.

Where a name gives a salt, the structure may show the parent alone. Read-outs that look alike come from different tables or passages of the source.

Consider `N#CCOc1ccc(-c2cnc3c(Nc4ccc(C(=O)N5CCC(C(=O)OCC6CNCCN6)CC5)c(Cl)c4)nccn23)c(F)c1F` (centres unmarked) [Example 98, piperazin-2-ylmethyl 1-[2-chloro-4-[[3-[4-(cyanomethoxy)-2,3-difluoro-phenyl]imidazo[1,2-a]pyrazin-8-yl]amino]benzoyl]piperidine-4-carboxylate trifluoroacetate], for which the IC90 under setting [1] stood at 0.085 µM.
Still for that read-out and setting: under `COc1ccc(-c2cnc3c(Nc4ccc(C(=O)N5CCC(C(=O)NCC(N)CO)CC5)c(C)c4)nccn23)cc1F` (centres unmarked) [Example 101, N-(2-amino-3-hydroxypropyl)-1-(4-((3-(3-fluoro-4-methoxyphenyl)imidazo[1,2-a]pyrazin-8-yl)amino)-2-methylbenzoyl)piperidine-4-carboxamide hydrochloride] stands 0.14 µM; under `CNCC(=O)NCC1CCN(C(=O)c2ccc(Nc3nccn4c(-c5ccc(OCC#N)c(F)c5F)cnc34)cc2C)CC1` [Example 102, N-[[1-[4-[[3-[4-(cyanomethoxy)-2,3-difluoro-phenyl]imidazo[1,2-a]pyrazin-8-yl]amino]-2-methyl-benzoyl]-4-piperidyl]methyl]-2-(methylamino)acetamide], 0.14 µM.
`COc1ccc(-c2cnc3c(Nc4ccc(C(=O)N5CCC(CNC(C)=O)CC5)c(C)c4)nccn23)cc1` [Example 103, N-((1-(4-((3-(4-methoxyphenyl)imidazo[1,2-a]pyrazin-8-yl)amino)-2-methylbenzoyl)piperidin-4-yl)methyl)acetamide]: under setting [1], the IC90 came to 0.15 µM.
Regarding `COc1ccc(-c2cnc3c(Nc4ccc(C(=O)N5CCC(CN)CC5)c(C)c4)nccn23)c(Cl)c1F` [Example 104, [4-(aminomethyl)-1-piperidyl]-[4-[[3-(2-chloro-3-fluoro-4-methoxy-phenyl)imidazo[1,2-a]pyrazin-8-yl]amino]-2-methyl-phenyl]methanone hydrochloride], where the note is “Acinetobacter baumannii, ATCC17978, 16 h, read-out: ATCC17978 IC90, 90% growth inhibitory concentration, Acinetobacter baumannii ATCC17978, Iso-Sensitest broth, OD 600 nm over 16 h”, the IC90 was 0.18 µM.
In the case of `Cc1cc(Nc2nccn3c(-c4ccc(OC(C)(C)C#N)c(F)c4F)cnc23)ccc1C(=O)N1CCC(CN)CC1` [Example 105, 2-[4-[8-[4-[4-(aminomethyl)piperidine-1-carbonyl]-3-methyl-anilino]imidazo[1,2-a]pyrazin-3-yl]-2,3-difluoro-phenoxy]-2-methyl-propanenitrile; formic acid], the IC90 under setting [1] worked out at 3.6 µM.
Same read-out and setting: then `COc1cc(F)c(-c2cnc3c(Nc4ccc(C(=O)N5CCC(CN)CC5)c(C)c4)nccn23)cc1F` [Example 106, (4-(aminomethyl)piperidin-1-yl)(4-((3-(2,5-difluoro-4-methoxyphenyl)imidazo[1,2-a]pyrazin-8-yl)amino)-2-methylphenyl)methanone], with 0.25 µM; and `COc1cc(F)c(-c2cnc3c(Nc4ccc(C(=O)N5CCC(CN)CC5)c(C)c4)nccn23)cc1Cl` [Example 107, (4-(aminomethyl)piperidin-1-yl)(4-((3-(5-chloro-2-fluoro-4-methoxyphenyl)imidazo[1,2-a]pyrazin-8-yl)amino)-2-methylphenyl)methanone], with 0.29 µM; and `Cc1cc(Nc2nccn3c(-c4ccc(Cl)cc4Cl)cnc23)ccc1C(=O)N1CCC(CN)CC1` [Example 108, (4-(aminomethyl)piperidin-1-yl)(4-((3-(2,4-dichlorophenyl)imidazo[1,2-a]pyrazin-8-yl)amino)-2-methylphenyl)methanone], with 1.3 µM.
As to `COc1ccc(-c2cnc3c(Nc4ccc(C(=O)N5CCC(CN)CC5)c(C)c4)nccn23)c(Cl)c1` [Example 109, (4-(aminomethyl)piperidin-1-yl)(4-((3-(2-chloro-4-methoxyphenyl)imidazo[1,2-a]pyrazin-8-yl)amino)-2-methylphenyl)methanone], the IC90 under setting [1] was determined as 0.51 µM.
On the same count and under the same terms, then `CCOc1ccc(-c2cnc3c(Nc4ccc(C(=O)N5CCC(CN)CC5)c(C)c4)nccn23)c(F)c1Cl` [Example 110, (4-(aminomethyl)piperidin-1-yl)(4-((3-(3-chloro-4-ethoxy-2-fluorophenyl)imidazo[1,2-a]pyrazin-8-yl)amino)-2-methylphenyl)methanone formate], with 0.42 µM; and `Cc1cc(Nc2nccn3c(-c4cc(F)c(F)c(F)c4)cnc23)ccc1C(=O)N1CCC(CN)CC1` [Example 111, (4-(aminomethyl)piperidin-1-yl)(2-methyl-4-((3-(3,4,5-trifluorophenyl)imidazo[1,2-a]pyrazin-8-yl)amino)phenyl)methanone], with 4.1 µM; and `CNCCNC(=O)C1CCN(C(=O)c2ccc(Nc3nccn4c(-c5ccc(OC)c(Cl)c5)cnc34)cc2C)CC1` [Example 112, 1-(4-((3-(3-chloro-4-methoxyphenyl)imidazo[1,2-a]pyrazin-8-yl)amino)-2-methylbenzoyl)-N-(2-(methylamino)ethyl)piperidine-4-carboxamide hydrochloride], with 0.18 µM.
Still for that read-out and setting: under `COc1ccc(-c2cnc3c(Nc4ccc(C(=O)N5CCC(CN)CC5)c(C)c4)nccn23)c(Cl)c1Cl` [Example 113, [4-(aminomethyl)-1-piperidyl]-[4-[[3-(2,3-dichloro-4-methoxy-phenyl)imidazo[1,2-a]pyrazin-8-yl]amino]-2-methyl-phenyl]methanone formate] stands 0.28 µM; under `Cc1cc(Nc2nccn3c(-c4ccc(OCC5CC5C#N)c(F)c4F)cnc23)ccc1C(=O)N1CCC(CN)CC1` (centres unmarked) [Example 114, 2-[[4-[8-[4-[4-(aminomethyl)piperidine-1-carbonyl]-3-methyl-anilino]imidazo[1,2-a]pyrazin-3-yl]-2,3-difluoro-phenoxy]methyl]cyclopropanecarbonitrile formate], 0.41 µM; under `Cc1cc(Nc2nccn3c(-c4ccc(OC5(C#N)CC5)c(F)c4F)cnc23)ccc1C(=O)N1CCC(CN)CC1` [Example 115, 1-[4-[8-[4-[4-(aminomethyl)piperidine-1-carbonyl]-3-methyl-anilino]imidazo[1,2-a]pyrazin-3-yl]-2,3-difluoro-phenoxy]cyclopropanecarbonitrile formate], 0.4 µM.
The same measure, in the same setting: under `CSc1ccc(-c2cnc3c(Nc4ccc(C(=O)N5CCC(CN)CC5)c(C)c4)nccn23)cc1F` [Example 116, [4-(aminomethyl)-1-piperidyl]-[4-[[3-(3-fluoro-4-methylsulfanyl-phenyl)imidazo[1,2-a]pyrazin-8-yl]amino]-2-methyl-phenyl]methanone formate] stands 0.5 µM; under `Cc1cc(Nc2nccn3c(-c4ccc(OC5CC5)c(Cl)c4)cnc23)ccc1C(=O)N1CCC(CN)CC1` [Example 117, [4-(aminomethyl)-1-piperidyl]-[4-[[3-[3-chloro-4-(cyclopropoxy)phenyl]imidazo[1,2-a]pyrazin-8-yl]amino]-2-methyl-phenyl]methanone formate], 0.54 µM; under `Cc1cc(Nc2nccn3c(-c4ccc(OCC5CC5)c(F)c4)cnc23)ccc1C(=O)N1CCC(CN)CC1` [Example 118, (4-(aminomethyl)piperidin-1-yl)(4-((3-(4-(cyclopropylmethoxy)-3-fluorophenyl)imidazo[1,2-a]pyrazin-8-yl)amino)-2-methylphenyl)methanone], 0.94 µM.
As for `Cc1cc(Nc2nccn3c(-c4ccc(OC(C)C#N)c(F)c4F)cnc23)ccc1C(=O)N1CCC(CN)CC1` (centres unmarked) [Example 119, 2-[4-[8-[4-[4-(aminomethyl)piperidine-1-carbonyl]-3-methyl-anilino]imidazo[1,2-a]pyrazin-3-yl]-2,3-difluoro-phenoxy]propanenitrile;2,2,2-trifluoroacetic acid], under setting [1], the IC90 is 0.4 µM.
Still for that read-out and setting: under `Cc1cc(Nc2nccn3c(-c4ccc(OCCCC#N)c(F)c4F)cnc23)ccc1C(=O)N1CCC(CN)CC1` [Example 120, 4-(4-(8-((4-(4-(aminomethyl)piperidine-1-carbonyl)-3-methylphenyl)amino)imidazo[1,2-a]pyrazin-3-yl)-2,3-difluorophenoxy)butanenitrile] stands 1 µM.
For the compound `Cc1cc(Nc2nccn3c(-c4ccc(Oc5ccccn5)c(F)c4F)cnc23)ccc1C(=O)N1CCC(CN)CC1` [Example 122, [4-(aminomethyl)-1-piperidyl]-[4-[[3-[2,3-difluoro-4-(2-pyridyloxy)phenyl]imidazo[1,2-a]pyrazin-8-yl]amino]-2-methyl-phenyl]methanone formate], the IC90 under setting [1] is 0.32 µM.
Still for that read-out and setting: under `Cc1cc(Nc2nccn3c(-c4ccc(Oc5ccncc5)c(F)c4F)cnc23)ccc1C(=O)N1CCC(CN)CC1` [Example 123, [4-(aminomethyl)-1-piperidyl]-[4-[[3-[2,3-difluoro-4-(4-pyridyloxy)phenyl]imidazo[1,2-a]pyrazin-8-yl]amino]-2-methyl-phenyl]methanone] stands 0.76 µM; under `Cc1cc(Nc2nccn3c(-c4ccc(OCc5cccnc5)c(F)c4F)cnc23)ccc1C(=O)N1CCC(CN)CC1` [Example 124, [4-(aminomethyl)-1-piperidyl]-[4-[[3-[2,3-difluoro-4-(3-pyridylmethoxy)phenyl]imidazo[1,2-a]pyrazin-8-yl]amino]-2-methyl-phenyl]methanone formate], 0.9 µM; under `Cc1cc(Nc2nccn3c(-c4ccc(OCc5ccccn5)c(F)c4F)cnc23)ccc1C(=O)N1CCC(CN)CC1` [Example 125, [4-(aminomethyl)-1-piperidyl]-[4-[[3-[2,3-difluoro-4-(2-pyridylmethoxy)phenyl]imidazo[1,2-a]pyrazin-8-yl]amino]-2-methyl-phenyl]methanone; formic acid], 1.7 µM.
Same read-out and setting: under `Cc1cc(Nc2nccn3c(-c4ccc(OCc5ccccc5)c(F)c4F)cnc23)ccc1C(=O)N1CCC(CN)CC1` [Example 126, [4-(aminomethyl)-1-piperidyl]-[4-[[3-(4-benzyloxy-2,3-difluoro-phenyl)imidazo[1,2-a]pyrazin-8-yl]amino]-2-methyl-phenyl]methanone formate] stands 3.6 µM.

The values are drawn from patent publication US20230011869A1 (Hoffmann-La Roche Inc., priority 2018, published 2023).
